# Results reported in PMC12372887, “Mechanism and cellular actions of the potent AMPK inhibitor BAY-3827” (Science Advances, 2025).
# Key:
# Assay in all cases: Kinase panel (140 human kinases)
# Type in all cases: biochemical
# AMPK = biological target: AMPK
# In short: (§1)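 Duplicate radiometric filter-binding measurements with [γ-^33P]ATP gave percent residual activity, mean and SD. Tested concentrations: 0.1 μM and, for BAY-3827, 1 μM. ATP set per kinase to 5, 20 or 50 μM, not above Km.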
# Aurora A = Aurora A (Homo sapiens, UniProt O14965)
# In short: as §1
# BRK = BRK (Homo sapiens, UniProt Q13882)
# In short: as §1
# CAMK1 = CAMK1 (Homo sapiens, UniProt Q14012)
# CAMK1, sequence (Q14012 whole entry): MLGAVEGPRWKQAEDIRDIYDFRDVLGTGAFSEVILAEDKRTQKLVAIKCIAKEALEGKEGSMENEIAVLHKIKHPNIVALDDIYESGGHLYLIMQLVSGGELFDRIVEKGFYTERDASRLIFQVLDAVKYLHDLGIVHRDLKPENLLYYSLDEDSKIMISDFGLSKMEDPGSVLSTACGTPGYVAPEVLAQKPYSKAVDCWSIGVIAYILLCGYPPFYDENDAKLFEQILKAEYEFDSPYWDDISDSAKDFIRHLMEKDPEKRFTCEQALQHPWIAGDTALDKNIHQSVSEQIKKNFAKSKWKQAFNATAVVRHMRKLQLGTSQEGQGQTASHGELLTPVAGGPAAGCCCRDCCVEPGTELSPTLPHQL
# In short: as §1
# CK1γ2 = CK1γ2 (Homo sapiens, UniProt P78368)
# In short: as §1
# CK1δ = CK1δ (Homo sapiens, UniProt P48730)
# In short: as §1
# CLK2 = CLK2 (Homo sapiens, UniProt P49760)
# In short: as §1
# DYRK1A = DYRK1A (Homo sapiens, UniProt Q13627)
# In short: as §1
# ERK1 = ERK1 (Homo sapiens, UniProt P27361)
# ERK1, sequence (P27361 whole entry): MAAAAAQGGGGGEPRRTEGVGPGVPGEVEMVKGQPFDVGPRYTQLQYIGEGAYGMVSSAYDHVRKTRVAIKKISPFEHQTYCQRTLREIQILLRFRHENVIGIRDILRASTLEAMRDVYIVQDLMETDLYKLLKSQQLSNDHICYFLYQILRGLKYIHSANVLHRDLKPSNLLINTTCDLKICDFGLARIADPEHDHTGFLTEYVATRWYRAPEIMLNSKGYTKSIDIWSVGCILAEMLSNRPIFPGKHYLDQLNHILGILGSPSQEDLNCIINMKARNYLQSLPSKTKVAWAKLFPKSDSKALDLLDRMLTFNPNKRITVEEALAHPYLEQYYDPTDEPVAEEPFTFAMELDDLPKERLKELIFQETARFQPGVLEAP
# In short: as §1
# ERK8 = ERK8 (Homo sapiens, UniProt Q8TD08)
# In short: as §1
# HIPK1 = HIPK1 (Homo sapiens, UniProt Q86Z02)
# In short: as §1
# HIPK2 = HIPK2 (Homo sapiens, UniProt Q9H2X6)
# In short: as §1
# IKKe = IKKe (Homo sapiens, UniProt Q14164)
# In short: as §1
# IRAK1 = IRAK1 (Homo sapiens, UniProt P51617)
# IRAK1, sequence (P51617 whole entry): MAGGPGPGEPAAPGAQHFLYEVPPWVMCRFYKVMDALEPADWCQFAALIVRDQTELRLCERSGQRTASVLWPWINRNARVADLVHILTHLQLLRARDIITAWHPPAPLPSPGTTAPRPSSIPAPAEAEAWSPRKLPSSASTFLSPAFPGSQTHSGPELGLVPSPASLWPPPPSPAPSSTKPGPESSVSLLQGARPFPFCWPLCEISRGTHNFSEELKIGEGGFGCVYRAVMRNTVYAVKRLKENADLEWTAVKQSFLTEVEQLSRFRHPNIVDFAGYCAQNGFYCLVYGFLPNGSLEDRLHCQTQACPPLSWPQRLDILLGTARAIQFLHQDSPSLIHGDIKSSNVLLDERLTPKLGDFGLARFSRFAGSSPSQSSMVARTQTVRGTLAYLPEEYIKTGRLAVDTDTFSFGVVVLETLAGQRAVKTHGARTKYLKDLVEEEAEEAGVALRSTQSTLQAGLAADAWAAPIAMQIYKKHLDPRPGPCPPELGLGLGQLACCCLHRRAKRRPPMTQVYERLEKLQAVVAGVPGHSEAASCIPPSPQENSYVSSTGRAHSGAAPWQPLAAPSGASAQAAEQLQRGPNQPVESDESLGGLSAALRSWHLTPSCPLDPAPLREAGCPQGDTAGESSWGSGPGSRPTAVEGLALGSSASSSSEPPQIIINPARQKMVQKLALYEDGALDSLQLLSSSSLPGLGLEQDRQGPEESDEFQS
# In short: as §1
# IRR = IRR (Homo sapiens, UniProt P14616)
# In short: as §1
# JAK3 = JAK3 (Homo sapiens, UniProt P52333)
# In short: as §1
# LKB1 = LKB1 (Homo sapiens, UniProt Q15831)
# In short: as §1
# MAP4K5 = MAP4K5 (Homo sapiens, UniProt Q9Y4K4)
# In short: as §1
# MAPKAP-K3 = MAPKAP-K3 (Homo sapiens, UniProt Q16644)
# In short: as §1
# MARK1 = MARK1 (Homo sapiens, UniProt Q9P0L2)
# In short: as §1
# MKK2 = MKK2 (Homo sapiens, UniProt P36507)
# In short: as §1
# MLK1 = MLK1 (Homo sapiens, UniProt P80192)
# In short: as §1
# MSK1 = MSK1 (Homo sapiens, UniProt O75582)
# MSK1, sequence (O75582 whole entry): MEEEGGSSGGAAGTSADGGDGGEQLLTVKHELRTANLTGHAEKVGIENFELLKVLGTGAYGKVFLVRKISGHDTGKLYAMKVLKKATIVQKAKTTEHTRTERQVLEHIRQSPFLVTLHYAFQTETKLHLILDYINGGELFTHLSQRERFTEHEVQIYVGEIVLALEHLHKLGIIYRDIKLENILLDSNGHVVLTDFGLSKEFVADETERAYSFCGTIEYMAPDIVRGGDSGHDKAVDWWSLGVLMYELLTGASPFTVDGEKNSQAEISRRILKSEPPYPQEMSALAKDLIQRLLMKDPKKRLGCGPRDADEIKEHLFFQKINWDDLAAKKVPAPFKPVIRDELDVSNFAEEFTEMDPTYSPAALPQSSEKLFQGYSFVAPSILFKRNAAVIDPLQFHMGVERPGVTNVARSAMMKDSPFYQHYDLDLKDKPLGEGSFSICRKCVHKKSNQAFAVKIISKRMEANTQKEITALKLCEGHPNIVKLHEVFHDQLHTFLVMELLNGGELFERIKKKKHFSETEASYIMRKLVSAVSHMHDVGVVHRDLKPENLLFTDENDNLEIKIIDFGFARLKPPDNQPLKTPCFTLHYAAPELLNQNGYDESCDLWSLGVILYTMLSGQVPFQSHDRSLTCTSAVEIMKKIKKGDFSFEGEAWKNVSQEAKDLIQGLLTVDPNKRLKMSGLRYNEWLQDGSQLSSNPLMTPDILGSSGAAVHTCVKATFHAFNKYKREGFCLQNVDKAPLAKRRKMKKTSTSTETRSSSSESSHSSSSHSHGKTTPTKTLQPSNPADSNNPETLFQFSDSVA
# In short: as §1
# NEK6 = NEK6 (Homo sapiens, UniProt Q9HC98)
# In short: as §1
# PDK1 = PDK1 (Homo sapiens, UniProt O15530)
# In short: as §1
# PIM2 = PIM2 (Homo sapiens, UniProt Q9P1W9)
# PIM2, sequence (Q9P1W9 whole entry): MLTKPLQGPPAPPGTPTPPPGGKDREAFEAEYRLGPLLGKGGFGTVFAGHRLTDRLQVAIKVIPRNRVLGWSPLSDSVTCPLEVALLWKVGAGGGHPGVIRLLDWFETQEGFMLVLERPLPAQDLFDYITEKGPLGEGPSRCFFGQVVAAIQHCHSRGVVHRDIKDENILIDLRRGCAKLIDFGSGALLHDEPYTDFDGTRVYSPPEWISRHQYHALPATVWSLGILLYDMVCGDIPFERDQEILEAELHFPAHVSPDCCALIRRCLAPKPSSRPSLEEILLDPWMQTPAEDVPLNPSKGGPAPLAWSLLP
# In short: as §1
# PIM3 = PIM3 (Homo sapiens, UniProt Q86V86)
# In short: as §1
# PKD1 = PKD1 (Homo sapiens, UniProt Q15139)
# In short: as §1
# PLK1 = PLK1 (Homo sapiens, UniProt P53350)
# In short: as §1
# PRK2 = PRK2 (Homo sapiens, UniProt Q16513)
# In short: as §1
# ROCK 2 = ROCK 2 (Homo sapiens, UniProt O75116)
# In short: as §1
# RSK2 = RSK2 (Homo sapiens, UniProt P51812)
# RSK2, sequence (P51812 whole entry): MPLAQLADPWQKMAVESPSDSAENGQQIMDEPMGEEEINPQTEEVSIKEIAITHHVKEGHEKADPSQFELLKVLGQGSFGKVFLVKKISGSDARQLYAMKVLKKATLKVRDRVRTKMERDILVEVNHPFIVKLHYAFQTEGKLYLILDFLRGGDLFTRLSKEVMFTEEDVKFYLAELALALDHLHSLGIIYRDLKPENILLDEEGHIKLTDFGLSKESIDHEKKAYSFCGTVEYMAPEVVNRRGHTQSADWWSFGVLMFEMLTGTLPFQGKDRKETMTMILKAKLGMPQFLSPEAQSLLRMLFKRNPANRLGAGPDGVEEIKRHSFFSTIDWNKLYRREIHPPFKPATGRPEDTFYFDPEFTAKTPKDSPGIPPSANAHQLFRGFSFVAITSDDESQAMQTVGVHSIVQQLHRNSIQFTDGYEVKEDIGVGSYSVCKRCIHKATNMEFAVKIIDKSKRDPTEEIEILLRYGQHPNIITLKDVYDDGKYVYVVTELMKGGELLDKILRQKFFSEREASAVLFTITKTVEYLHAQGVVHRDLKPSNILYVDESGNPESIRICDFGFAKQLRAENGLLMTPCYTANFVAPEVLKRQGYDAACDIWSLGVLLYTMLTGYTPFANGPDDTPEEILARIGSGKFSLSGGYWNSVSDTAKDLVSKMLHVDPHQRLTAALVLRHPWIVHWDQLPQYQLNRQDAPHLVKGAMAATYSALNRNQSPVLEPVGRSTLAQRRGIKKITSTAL
# In short: as §1
# S6K1 = S6K1 (Homo sapiens, UniProt P23443)
# In short: as §1
# SIK2 = SIK2 (Homo sapiens, UniProt Q9H0K1)
# In short: as §1
# SRPK1 = SRPK1 (Homo sapiens, UniProt Q96SB4)
# In short: as §1
# SmMLCK = SmMLCK (Homo sapiens, UniProt Q15746)
# In short: as §1
# Src = Src (Homo sapiens, UniProt P12931)
# In short: as §1
# TGFBR1 = TGFBR1 (Homo sapiens, UniProt P36897)
# In short: as §1
# TTBK1 = TTBK1 (Homo sapiens, UniProt Q5TCY1)
# TTBK1, sequence (Q5TCY1 whole entry): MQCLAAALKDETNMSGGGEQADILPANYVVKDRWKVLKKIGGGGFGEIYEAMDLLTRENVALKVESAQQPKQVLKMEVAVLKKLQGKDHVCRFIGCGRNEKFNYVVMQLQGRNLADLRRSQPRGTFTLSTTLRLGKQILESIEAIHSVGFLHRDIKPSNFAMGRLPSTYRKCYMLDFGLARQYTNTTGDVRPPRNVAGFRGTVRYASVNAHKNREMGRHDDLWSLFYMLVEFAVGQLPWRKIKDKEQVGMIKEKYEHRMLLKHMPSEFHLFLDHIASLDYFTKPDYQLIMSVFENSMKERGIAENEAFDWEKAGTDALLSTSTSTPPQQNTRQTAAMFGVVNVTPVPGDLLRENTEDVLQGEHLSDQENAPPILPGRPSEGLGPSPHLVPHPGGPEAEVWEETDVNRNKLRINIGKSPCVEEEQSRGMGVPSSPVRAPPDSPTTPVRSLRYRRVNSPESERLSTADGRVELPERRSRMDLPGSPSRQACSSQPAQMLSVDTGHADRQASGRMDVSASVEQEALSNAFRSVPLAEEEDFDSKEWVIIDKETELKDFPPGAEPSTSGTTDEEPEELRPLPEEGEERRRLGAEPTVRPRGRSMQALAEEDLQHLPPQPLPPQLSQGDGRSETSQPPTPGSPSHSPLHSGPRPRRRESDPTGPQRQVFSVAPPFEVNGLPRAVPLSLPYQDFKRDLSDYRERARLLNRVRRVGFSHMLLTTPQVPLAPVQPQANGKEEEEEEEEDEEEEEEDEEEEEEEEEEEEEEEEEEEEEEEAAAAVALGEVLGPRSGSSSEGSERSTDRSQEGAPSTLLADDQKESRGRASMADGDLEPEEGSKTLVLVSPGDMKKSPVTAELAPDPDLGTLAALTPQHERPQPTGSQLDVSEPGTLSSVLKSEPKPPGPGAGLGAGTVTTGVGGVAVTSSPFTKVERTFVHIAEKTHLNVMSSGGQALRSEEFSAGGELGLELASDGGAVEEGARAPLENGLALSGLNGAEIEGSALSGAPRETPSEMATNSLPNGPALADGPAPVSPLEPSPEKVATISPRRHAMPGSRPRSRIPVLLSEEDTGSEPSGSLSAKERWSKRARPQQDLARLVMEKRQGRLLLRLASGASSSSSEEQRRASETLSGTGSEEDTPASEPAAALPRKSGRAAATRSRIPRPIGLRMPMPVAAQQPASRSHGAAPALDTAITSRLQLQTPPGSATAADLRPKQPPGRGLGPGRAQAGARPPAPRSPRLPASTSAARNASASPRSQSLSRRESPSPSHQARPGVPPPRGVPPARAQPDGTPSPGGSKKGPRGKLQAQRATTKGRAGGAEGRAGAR
# In short: as §1
# TTK = TTK (Homo sapiens, UniProt P33981)
# In short: as §1
# VEG-FR = conditions: 0.1 μM
# In short: as §1
# [1] = 1 μM, cross-referenced with screen data of ref 37, read-out: activity remaining after treatment
smiles,measurement,setting,value
"CC1=C(C#N)C(c2ccc3c(c2)c(NC(=O)c2ccccc2C)nn3C)C(C#N)=C(C)N1 [BAY-974, N-[5-(3,5-dicyano-2,6-dimethyl-1,4-dihydropyridin-4-yl)-1-methylindazol-3-yl]-2-methylbenzamide]",Kinase activity remaining (%),AMPK; 0.1 μM,98%
same,inhibition of kinase,AMPK; 0.1 μM,almost no effect
same,remaining activity at 0.1 µM,Aurora A,79%
same,remaining activity at 0.1 µM,BRK,70%
same,remaining activity at 0.1 µM,CAMK1,78%
same,remaining activity at 0.1 µM,CK1γ2,112%
same,remaining activity at 0.1 µM,CK1δ,116%
same,remaining activity at 0.1 µM,CLK2,93%
same,remaining activity at 0.1 µM,DYRK1A,101%
same,remaining activity at 0.1 µM,ERK1,103%
same,remaining activity at 0.1 µM,ERK8,91%
same,remaining activity at 0.1 µM,HIPK1,91%
same,remaining activity at 0.1 µM,HIPK2,108%
same,remaining activity at 0.1 µM,IKKe,101%
same,inhibition at 0.1 µM,IRAK1,55 to 90%
same,remaining activity at 0.1 µM,IRR,88%
same,remaining activity at 0.1 µM,JAK3,106%
same,remaining activity at 0.1 µM,LKB1,104%
same,remaining activity at 0.1 µM,MAP4K5,89%
same,remaining activity at 0.1 µM,MAPKAP-K3,81%
same,remaining activity at 0.1 µM,MARK1,93%
same,remaining activity at 0.1 µM,MKK2,95%
same,remaining activity at 0.1 µM,MLK1,90%
same,remaining activity at 0.1 µM,MSK1,100%
same,remaining activity at 0.1 µM,NEK6,85%
same,remaining activity at 0.1 µM,PDK1,85%
same,remaining activity at 0.1 µM,PIM2,113%
same,remaining activity at 0.1 µM,PIM3,125%
same,remaining activity at 0.1 µM,PKD1,84%
same,remaining activity at 0.1 µM,PLK1,105%
same,remaining activity at 0.1 µM,PRK2,83%
same,remaining activity at 0.1 µM,ROCK 2,98%
same,remaining activity at 0.1 µM,RSK2,117%
same,remaining activity at 0.1 µM,S6K1,97%
same,remaining activity at 0.1 µM,SIK2,88%
same,remaining activity at 0.1 µM,SRPK1,97%
same,remaining activity at 0.1 µM,SmMLCK,80%
same,remaining activity at 0.1 µM,Src,92%
same,remaining activity at 0.1 µM,TGFBR1,113%
same,remaining activity at 0.1 µM,TTBK1,104%
same,remaining activity at 0.1 µM,TTK,79%
same,Kinase activity remaining (%),VEG-FR,95%
"CCc1ccccc1C(=O)Nc1n[nH]c2c(C)c(F)c(C3C(C#N)=C(C)N(C)C(C)=C3C#N)cc12 [BAY-3827, N-[5-(3,5-dicyano-1,2,6-trimethyl-4H-pyridin-4-yl)-6-fluoro-7-methyl-1H-indazol-3-yl]-2-ethylbenzamide]",inhibition of kinase,AMPK; 0.1 μM,> 90%
same,activity remaining after treatment,"AMPK; 1 μM, cross-referenced with screen data of ref 37",≤ 50%
same,remaining activity at 0.1 µM,Aurora A,90%
same,remaining activity at 0.1 µM,BRK,83%
same,remaining activity at 0.1 µM,CAMK1,80%
same,remaining activity at 0.1 µM,CK1γ2,95%
same,remaining activity at 0.1 µM,CK1δ,103%
same,remaining activity at 0.1 µM,CLK2,87%
same,remaining activity at 0.1 µM,DYRK1A,96%
same,remaining activity at 0.1 µM,ERK1,105%
same,remaining activity at 0.1 µM,ERK8,66%
same,remaining activity at 0.1 µM,HIPK1,94%
same,remaining activity at 0.1 µM,HIPK2,121%
same,remaining activity at 0.1 µM,IKKe,85%
same,inhibition at 0.1 µM,IRAK1,~60%
same,remaining activity at 0.1 µM,IRAK1,≤ 50%
same,remaining activity at 0.1 µM,IRR,89%
same,remaining activity at 0.1 µM,JAK3,90%
same,remaining activity at 0.1 µM,LKB1,97%
same,remaining activity at 0.1 µM,MAP4K5,97%
same,remaining activity at 0.1 µM,MAPKAP-K3,101%
same,remaining activity at 0.1 µM,MARK1,82%
same,remaining activity at 0.1 µM,MKK2,97%
same,remaining activity at 0.1 µM,MLK1,89%
same,remaining activity at 0.1 µM,MSK1,56%
same,remaining activity at 1 µM,MSK1; [1],≤ 50%
same,remaining activity at 0.1 µM,NEK6,102%
same,remaining activity at 0.1 µM,PDK1,83%
same,remaining activity at 0.1 µM,PIM2,112%
same,remaining activity at 1 µM,PIM2; [1],≥ 99%
same,remaining activity at 0.1 µM,PIM3,101%
same,remaining activity at 1 µM,PIM3; [1],≥ 99%
same,remaining activity at 0.1 µM,PKD1,100%
same,remaining activity at 0.1 µM,PLK1,97%
same,remaining activity at 0.1 µM,PRK2,88%
same,remaining activity at 0.1 µM,ROCK 2,83%
same,remaining activity at 0.1 µM,RSK2,90%
same,remaining activity at 1 µM,RSK2; [1],≤ 50%
same,remaining activity at 0.1 µM,S6K1,87%
same,remaining activity at 0.1 µM,SIK2,107%
same,remaining activity at 0.1 µM,SRPK1,111%
same,remaining activity at 0.1 µM,SmMLCK,76%
same,remaining activity at 0.1 µM,Src,90%
same,remaining activity at 0.1 µM,TGFBR1,86%
same,remaining activity at 0.1 µM,TTBK1,101%
same,remaining activity at 1 µM,TTBK1; [1],≥ 99%
same,remaining activity at 0.1 µM,TTK,74%
same,Kinase activity remaining (%),VEG-FR,89%
